Patent US9439941B2, “Nano cancer barrier device (NCBD) to immobilize and inhibit the division of metastic cancer stem cells” (The University of Hong Kong, priority 2009, dated 2016)
Entries after “also recorded” stand apart in the source; their conditions may differ.

Legend:
[1] = test system: hormone refractory prostate cancer (HRPC); conditions: HRPC patients, Docetaxel-based chemotherapy; cited from earlier work
[2] = pH of untreated SAP solution; assay type: physicochemical; conditions: before neutralization in culture medium
Procedure: (§1) Untreated SAP solution has a very low pH (about 3-4). We neutralized the SAP solution in culture medium before implanting cells in the material. Briefly, for both 1% and 3%, SAP was placed in a dry dish and then 500 μl of culture medium added at the edge of the dish. This was to ensure that the culture medium would not wash the SAP away. The self-assembly occurred as soon as the material made contact with the medium. The medium was changed once at 30 minutes, and then removed. The 400 cells were placed either in the assembled SAP or a control well. Culture medium was then added at the edge of the dish in both SAP cases, and topped up every 2 days to compensate for evaporation. On day 14, the cells were vigorously washed out of the SAP using culture medium. In the 1% case, group 1 (n=4), the cells and SAP were moved to a new well and contents were washed multiple times to separate them from the SAP. In the 3% case, group 2 (n=4), the wells were also vigorously washed to remove the cells from the SAP. However, in both the 1% and 3% SAP concentration, not all of the cells were liberated. The culture continued to grow for 28 days at which point the wells were fixed with 4% paraformaldahyde.

[3] = test system: prostate cancer cells (DU145); experiment: spheroid (prostasphere) / colony formation of prostate cancer stem cells embedded in SAP, non-adherent plate; assay type: cell-based; conditions: for state of CSCs: 14 days after plating; for prostasphere detection: 14 days after plating in non-adherent plate
Procedure: The SAP solution was prepared by using RADA16-I dry powder (made in the Ellis-Behnke lab) and mixed in an Eppendorf tube. The solution contained 10 or 30 mg of RADA16-I powder in 1 ml of Milli-Q water (Millipore Corp., Billerica Mass.), mixed, then sonicated for 30 seconds and filtered; this produced 1% and 3% SAP, respectively.
Pre-mix medium for spheroid assay. Mix 50 ml SFM (DMEM-F12-high glucose with 0.25% methylcellulose) and add 1 ml b27 per 50 ml SFM (50× stock). The growth factors are: fibroblast growth factor-basic (FGF) (Sigma cat. no. F0291)—25 μg dissolved in 1.0 ml of 5 mM Tris (pH 7.6) and sterilized with a 0.22 μm pore size filter (make 20 μl aliquots (stored at −20° C.) and add 10 μl per 50 ml of SFM); Epidermal growth factor (EGF) (Sigma cat. no. E4127)—0.1 mg dissolved in 1.0 ml of phosphate-buffered saline containing 0.1% bovine serum albumin (Sigma cat. no. A7511) (make […] (stored at −20° C.) and add 10 μl per 50 ml of SFM); Insulin 10 mg/ml—add 20 μl per 50 ml.
To remove prostate cancer cells (DU145, ATCC, Rockville, Md.) from adherent culture, trypsin was used to liberate and then re-suspend 400 cells per 1 μl plated in each well (10). Before plating the cells, the plate was coated with polyhema (Sigma, St. Louis, Mo.).
as §1

## CC(=O)O[C@@]12CO[C@@H]1C[C@H](O)[C@@]1(C)C(=O)[C@H](O)C3=C(C)[C@@H](OC(=O)[C@H](O)[C@@H](NC(=O)OC(C)(C)C)c4ccccc4)C[C@@](O)([C@@H](OC(=O)c4ccccc4)[C@H]21)C3(C)C [Docetaxel]
[1]
  improvement of median survival time: 3 months

## n-RADARADARADARADA-c [SAP]
[2]
  pH of untreated SAP solution: 3-4
[3]; 1% SAP
  state of CSCs: most of the CSCs remained single cells
  prostasphere detection: no prostaspheres could be detected
[3]; 1% SAP, cells not liberated by day-14 washout
  time remaining cells continued to be quiescent (no division, no colony formation): up to 28 days
[3]; 1% SAP, day 10
  state of cells at day 10 (FIG. 1G): still single cells
[3]; 1% SAP, group 1 (n=4)
  cell division and colony formation while cells are in the material: remained quiescent; also recorded: delayed division and formation of colonies
[3]; 1% and 3% SAP
  colonies when cells completely surrounded by the material: no colonies were seen
[3]; 1% and 3% SAP, some cases
  colonies when part of the cell was exposed: a colony of reduced size was seen
[3]; 1% and 3% SAP, experiment then stopped
  time proliferation of cells was suspended: 28 days
[3]; 3% SAP
  state of CSCs: most of the CSCs remained single cells
  prostasphere detection: no prostaspheres could be detected
[3]; 3% SAP, at 28 days
  cell division or colony formation of cells that remained in the material: no cell division or colony formation
[3]; 3% SAP, day 10
  state of cells at day 10 (FIG. 1H): still single cells
[3]; 3% SAP, day 28
  size of single cell remaining in SAP (FIG. 1O): still the same size as day 1
[3]; CSCs from prostate cancer cell lines embedded in SAP
  time CSCs remained quiescent: more than 28 days
[3]; SAP, viability and CSC property preserved
  self-renewal of prostate CSC: completely inhibit
[3]; cells washed out of 1% SAP
  time until colonization visible post-washout: 10 days
[3]; cells washed out of 1% SAP and replated
  viability and self-renewal of embedded cells after washout: viable and capable of self-renewal
[3]; cells washed out of 1% SAP at day 14, replated in non-adherent plate
  time until prostaspheres visible after washout: 8 days
[3]; cells washed out of 3% SAP at day 14
  time until prostaspheres evident post-washout: 8 days
[3]; each group, cells placed in the SAP
  division of cancer cells in vitro and subsequent colony formation: stopped
